Measured values reported in article PMC5218480 (PLoS ONE, 2017).

System: MV-4-11 cells
Assay: Gene expression microarray analysis (Affymetrix PrimeView) and GSEA
Assay type: cell-based, human
Design: RFU PODN (11730768_x_at) / Fold change /veh PODN (11730768_x_at) / RFU LINC00158 (11744669_a_at) / Fold change /veh LINC00158 (11744669_a_at) / RFU DUSP10 (11751237_a_at) / Fold change /veh DUSP10 (11751237_a_at) / RFU ID3 (11757404_x_at) / Fold change /veh ID3 (11757404_x_at) / RFU PLEKHG5 (11737974_s_at) / Fold change /veh PLEKHG5 (11737974_s_at) / RFU LRRC4B (11730491_at) / Fold change /veh LRRC4B (11730491_at) / RFU GIMAP4 (11747438_a_at) / Fold change /veh GIMAP4 (11747438_a_at) / RFU KRT8 (11758183_x_at) / Fold change /veh KRT8 (11758183_x_at) / RFU CNN1 (11734310_a_at) / Fold change /veh CNN1 (11734310_a_at) / RFU VPS37D (11726825_at) / Fold change /veh VPS37D (11726825_at) / RFU C10orf10 (11716522_x_at) / Fold change /veh C10orf10 (11716522_x_at) / RFU KIR2DL2 /// KIR2DL4 /// KIR2DL5A /// KIR2DL5B /// KIR2DS1 /// KIR2DS2 /// KIR2DS3 /// KIR2DS4 /// KIR3DL3 /// KIR3DL3 /// KIR3DS1 (11738374_at) / Fold change /veh KIR2DL2 /// KIR2DL4 /// KIR2DL5A /// KIR2DL5B /// KIR2DS1 /// KIR2DS2 /// KIR2DS3 /// KIR2DS4 /// KIR3DL3 /// KIR3DL3 /// KIR3DS1 (11738374_at) / RFU C1QL1 (11718748_at) / Fold change /veh C1QL1 (11718748_at) / RFU TMPRSS4 (11747572_a_at) / Fold change /veh TMPRSS4 (11747572_a_at) / RFU HAMP (11756126_x_at) / Fold change /veh HAMP (11756126_x_at) / RFU RNFT2 (11725882_a_at) / Fold change /veh RNFT2 (11725882_a_at) / RFU NR4A2 (11747474_a_at) / Fold change /veh NR4A2 (11747474_a_at) / RFU ABCC12 (11746883_a_at) / Fold change /veh ABCC12 (11746883_a_at) / RFU TMEM136 (11760407_x_at) / Fold change /veh TMEM136 (11760407_x_at) / RFU CLDN22 /// WWC2 (11732394_at) / Fold change /veh CLDN22 /// WWC2 (11732394_at) / RFU HLA-DPB1 (11760878_x_at) / Fold change /veh HLA-DPB1 (11760878_x_at) / RFU SPINT1 (11716480_a_at) / Fold change /veh SPINT1 (11716480_a_at) / RFU GAP43 (11754022_s_at) / Fold change /veh GAP43 (11754022_s_at) / RFU A4GNT (11735810_at) / Fold change /veh A4GNT (11735810_at) / RFU PRB3 (11715151_x_at) / Fold change /veh PRB3 (11715151_x_at) / RFU TUBB4B (11761932_at) / Fold change /veh TUBB4B (11761932_at) / RFU CAPN14 (11732068_a_at) / Fold change /veh CAPN14 (11732068_a_at) / RFU TMCC2 (11721928_a_at) / Fold change /veh TMCC2 (11721928_a_at) / RFU IRGQ (11745062_a_at) / Fold change /veh IRGQ (11745062_a_at) / RFU FAM174B (11720279_a_at) / Fold change /veh FAM174B (11720279_a_at) / RFU TMPRSS4 (11748680_a_at) / Fold change /veh TMPRSS4 (11748680_a_at) / RFU FAM212B (11763350_a_at) / Fold change /veh FAM212B (11763350_a_at) / RFU PLEKHG5 (11743358_a_at) / Fold change /veh PLEKHG5 (11743358_a_at) / RFU ZSCAN30 (11745921_a_at) / Fold change /veh ZSCAN30 (11745921_a_at) / RFU CMKLR1 (11741424_a_at) / Fold change /veh CMKLR1 (11741424_a_at) / RFU LOC101060620 /// MAPK8IP1 (11723275_at) / Fold change /veh LOC101060620 /// MAPK8IP1 (11723275_at) / RFU SPTSSB (11747773_x_at) / Fold change /veh SPTSSB (11747773_x_at) / RFU PRSS12 (11739890_at) / Fold change /veh PRSS12 (11739890_at) / RFU BIN1 (11741810_x_at) / Fold change /veh BIN1 (11741810_x_at) / RFU WNT11 (11732464_a_at) / Fold change /veh WNT11 (11732464_a_at) / RFU C10orf10 (11716521_a_at) / Fold change /veh C10orf10 (11716521_a_at) / RFU C5orf56 (11738089_at) / Fold change /veh C5orf56 (11738089_at) / RFU CYB561 (11721691_x_at) / Fold change /veh CYB561 (11721691_x_at) / RFU ANKRD19P (11752326_a_at) / Fold change /veh ANKRD19P (11752326_a_at) / RFU OR2T12 /// OR2T33 /// OR2T8 (11738714_s_at) / Fold change /veh OR2T12 /// OR2T33 /// OR2T8 (11738714_s_at) / RFU VCAN (11748164_a_at) / Fold change /veh VCAN (11748164_a_at) / RFU JSRP1 (11732532_at) / Fold change /veh JSRP1 (11732532_at) / RFU KRTAP10-11 (11738290_x_at) / Fold change /veh KRTAP10-11 (11738290_x_at) / RFU MYO3A (11730013_a_at) / Fold change /veh MYO3A (11730013_a_at) / RFU EBF3 (11725865_a_at) / Fold change /veh EBF3 (11725865_a_at) / RFU CAMK2N1 (11719241_x_at) / Fold change /veh CAMK2N1 (11719241_x_at) / RFU C5orf56 (11738088_a_at) / Fold change /veh C5orf56 (11738088_a_at) / RFU OLFML3 (11715873_a_at) / Fold change /veh OLFML3 (11715873_a_at) / RFU LOC100653217 /// NTM (11731650_a_at) / Fold change /veh LOC100653217 /// NTM (11731650_a_at) / RFU MAPK11 (11762145_a_at) / Fold change /veh MAPK11 (11762145_a_at) / RFU FIZ1 (11724087_x_at) / Fold change /veh FIZ1 (11724087_x_at) / RFU OASL (11726364_x_at) / Fold change /veh OASL (11726364_x_at) / RFU SOX15 (11748057_x_at) / Fold change /veh SOX15 (11748057_x_at) / RFU CD79A (11719716_a_at) / Fold change /veh CD79A (11719716_a_at) / RFU HIST1H1D (11736915_at) / Fold change /veh HIST1H1D (11736915_at) / RFU CASKIN2 (11723855_a_at) / Fold change /veh CASKIN2 (11723855_a_at) / RFU LOC730098 (11760151_x_at) / Fold change /veh LOC730098 (11760151_x_at) / RFU OR4N2 (11742367_at) / Fold change /veh OR4N2 (11742367_at) / RFU PRRT2 (11749266_a_at) / Fold change /veh PRRT2 (11749266_a_at) / RFU SNX32 (11753110_a_at) / Fold change /veh SNX32 (11753110_a_at) / RFU CDHR5 (11726645_a_at) / Fold change /veh CDHR5 (11726645_a_at) / RFU RCAN1 (11760418_a_at) / Fold change /veh RCAN1 (11760418_a_at) / RFU FAM167A (11723789_a_at) / Fold change /veh FAM167A (11723789_a_at) / RFU FAM26E (11764081_at) / Fold change /veh FAM26E (11764081_at) / RFU ISYNA1 (11749810_s_at) / Fold change /veh ISYNA1 (11749810_s_at) / RFU ACY1 (11761880_at) / Fold change /veh ACY1 (11761880_at) / RFU 11764098_at / Fold change /veh 11764098_at / RFU SAMD14 (11745864_x_at) / Fold change /veh SAMD14 (11745864_x_at) / RFU NPB (11741838_a_at) / Fold change /veh NPB (11741838_a_at) / RFU TMPRSS6 (11731388_a_at) / Fold change /veh TMPRSS6 (11731388_a_at) / RFU KRTAP10-2 (11738614_at) / Fold change /veh KRTAP10-2 (11738614_at) / RFU ARHGAP8 /// PRR5-ARHGAP8 (11727945_x_at) / Fold change /veh ARHGAP8 /// PRR5-ARHGAP8 (11727945_x_at) / RFU KRTAP5-7 /// NADSYN1 (11734609_at) / Fold change /veh KRTAP5-7 /// NADSYN1 (11734609_at) / RFU RASL12 (11751679_a_at) / Fold change /veh RASL12 (11751679_a_at) / RFU CDKN2B (11736163_a_at) / Fold change /veh CDKN2B (11736163_a_at) / RFU PRF1 (11729649_at) / Fold change /veh PRF1 (11729649_at) / RFU, ZNF638 /// ZNF638-IT1 / Fold change vs veh, ZNF638 /// ZNF638-IT1 / RFU, PANK3 / Fold change vs veh, PANK3 / RFU, SH3YL1 / Fold change vs veh, SH3YL1 / RFU, ZEB2 / Fold change vs veh, ZEB2 / RFU, NRIP1 / Fold change vs veh, NRIP1 / RFU, PTTG1IP / Fold change vs veh, PTTG1IP / RFU, CAPN2 / Fold change vs veh, CAPN2 / RFU, MED14 / Fold change vs veh, MED14 / RFU, SNORA58 / Fold change vs veh, SNORA58 / RFU, C1orf63 / Fold change vs veh, C1orf63 / RFU, LRRFIP1 / Fold change vs veh, LRRFIP1 / RFU, NDUFAF7 / Fold change vs veh, NDUFAF7 / RFU, SLC12A2 / Fold change vs veh, SLC12A2 / RFU, IBTK / Fold change vs veh, IBTK / RFU, ESF1 / Fold change vs veh, ESF1 / Fold change vs veh, TMEM50B / RFU, TAOK1 / Fold change vs veh, TAOK1 / RFU, ACBD3 / Fold change vs veh, ACBD3 / RFU, TMA16 / Fold change vs veh, TMA16 / RFU, RWDD3 / Fold change vs veh, RWDD3 / RFU, BCAT1 / Fold change vs veh, BCAT1 / RFU, EDEM3 / Fold change vs veh, EDEM3 / RFU, TMEM33 / Fold change vs veh, TMEM33 / RFU, WDR75 / Fold change vs veh, WDR75 / RFU, AHCTF1 / Fold change vs veh, AHCTF1 / RFU, TFRC / Fold change vs veh, TFRC / RFU, ZDHHC17 / Fold change vs veh, ZDHHC17 / RFU, NOM1 / Fold change vs veh, NOM1 / RFU, ARL8B / Fold change vs veh, ARL8B / RFU, ZBTB11 / Fold change vs veh, ZBTB11 / RFU, TAMM41 / Fold change vs veh, TAMM41 / RFU, KIAA1704 /// LOC100996395 / Fold change vs veh, KIAA1704 /// LOC100996395 / RFU, ING1 / Fold change vs veh, ING1 / RFU, TRMT61B / Fold change vs veh, TRMT61B / RFU, FUBP3 / Fold change vs veh, FUBP3 / RFU, TP53 / Fold change vs veh, TP53 / RFU, TNKS2 / Fold change vs veh, TNKS2 / RFU, ZFP14 / Fold change vs veh, ZFP14 / RFU, ACTR2 / Fold change vs veh, ACTR2 / RFU, PPP3R1 / Fold change vs veh, PPP3R1 / RFU, PIK3R1 / Fold change vs veh, PIK3R1 / RFU, HNRNPA1 / Fold change vs veh, HNRNPA1 / RFU, RNF170 / Fold change vs veh, RNF170 / RFU, ZNF28 / Fold change vs veh, ZNF28 / RFU, RNGTT / Fold change vs veh, RNGTT / RFU, OGT / Fold change vs veh, OGT / RFU, BRD1 / Fold change vs veh, BRD1 / RFU, MARS / Fold change vs veh, MARS / RFU, ZNF655 / Fold change vs veh, ZNF655 / RFU, FAHD1 / Fold change vs veh, FAHD1 / RFU, BDP1 / Fold change vs veh, BDP1 / RFU, LRRCC1 / Fold change vs veh, LRRCC1 / RFU, ARID1A / Fold change vs veh, ARID1A / RFU, ZNF146 / Fold change vs veh, ZNF146 / RFU, ZNF330 / Fold change vs veh, ZNF330 / RFU, GPN3 / Fold change vs veh, GPN3 / RFU, C9orf123 / Fold change vs veh, C9orf123 / RFU, N4BP2L2 / Fold change vs veh, N4BP2L2 / RFU, ARFIP1 / Fold change vs veh, ARFIP1 / RFU, FAM179B / Fold change vs veh, FAM179B / RFU, BCL10 / Fold change vs veh, BCL10 / RFU, UHRF1BP1L / Fold change vs veh, UHRF1BP1L / RFU, BET1 / Fold change vs veh, BET1 / RFU, CNOT2 / Fold change vs veh, CNOT2 / RFU, ZNF268 / Fold change vs veh, ZNF268 / Fold change vs veh, ZNF507 / RFU, DGCR2 / Fold change vs veh, DGCR2 / RFU, WDSUB1 / Fold change vs veh, WDSUB1 / Fold change vs veh, HSP90B1 /// MIR3652 / RFU, ADSS / Fold change vs veh, ADSS / RFU, GK / Fold change vs veh, GK / RFU, ZNF148 / Fold change vs veh, ZNF148 / RFU, TAF9 / Fold change vs veh, TAF9 / RFU, SLC1A5 / Fold change vs veh, SLC1A5 / RFU, SLMO2 / Fold change vs veh, SLMO2 / RFU, ABCC4 / Fold change vs veh, ABCC4 / RFU, LOC101060439 /// RAP1B / Fold change vs veh, LOC101060439 /// RAP1B / RFU, RFX7 / Fold change vs veh, RFX7 / RFU, GTPBP10 / Fold change vs veh, GTPBP10 / RFU, CNEP1R1 / Fold change vs veh, CNEP1R1 / RFU, BIVM-ERCC5 /// ERCC5 / Fold change vs veh, BIVM-ERCC5 /// ERCC5 / RFU, ILF3 / Fold change vs veh, ILF3 / RFU 11762660_at / Fold change /veh 11762660_at / RFU VCAN (11757783_s_at) / Fold change /veh VCAN (11757783_s_at) / RFU DDX43 (11728927_at) / Fold change /veh DDX43 (11728927_at) / RFU KRT8 (11758188_x_at) / Fold change /veh KRT8 (11758188_x_at) / RFU NKD1 (11759106_at) / Fold change /veh NKD1 (11759106_at) / RFU SRD5A1 (11742802_a_at) / Fold change /veh SRD5A1 (11742802_a_at) / RFU TPSAB1 /// TPSB2 (11721975_s_at) / Fold change /veh TPSAB1 /// TPSB2 (11721975_s_at) / RFU GSTM3 (11746129_a_at) / Fold change /veh GSTM3 (11746129_a_at) / RFU IL23R (11737362_x_at) / Fold change /veh IL23R (11737362_x_at) / RFU TMEM51 (11727254_a_at) / Fold change /veh TMEM51 (11727254_a_at) / RFU PIWIL2 (11732686_x_at) / Fold change /veh PIWIL2 (11732686_x_at) / RFU ORM1 (11744905_x_at) / Fold change /veh ORM1 (11744905_x_at) / RFU CCDC152 (11743942_at) / Fold change /veh CCDC152 (11743942_at) / RFU ECM1 (11717891_a_at) / Fold change /veh ECM1 (11717891_a_at) / RFU IL23R (11748794_a_at) / Fold change /veh IL23R (11748794_a_at) / RFU TNFAIP8L3 (11732012_x_at) / Fold change /veh TNFAIP8L3 (11732012_x_at) / RFU MBOAT4 (11741988_at) / Fold change /veh MBOAT4 (11741988_at) / RFU 11764193_at / Fold change /veh 11764193_at / RFU TMEM53 (11763286_at) / Fold change /veh TMEM53 (11763286_at) / RFU MAGEB2 (11727129_at) / Fold change /veh MAGEB2 (11727129_at) / RFU TMEM200A (11744735_a_at) / Fold change /veh TMEM200A (11744735_a_at) / RFU CCDC152 (11751479_a_at) / Fold change /veh CCDC152 (11751479_a_at) / RFU FAM211A (11726209_a_at) / Fold change /veh FAM211A (11726209_a_at) / RFU RGS16 (11746705_a_at) / Fold change /veh RGS16 (11746705_a_at) / RFU VCAN (11755009_s_at) / Fold change /veh VCAN (11755009_s_at) / RFU RHOB (11743442_s_at) / Fold change /veh RHOB (11743442_s_at) / RFU RGS16 (11720943_a_at) / Fold change /veh RGS16 (11720943_a_at) / RFU RGS16 (11720944_at) / Fold change /veh RGS16 (11720944_at) / RFU, VPS4B / Fold change vs veh, VPS4B / RFU, CREB1 / Fold change vs veh, CREB1 / RFU, DNAJC13 / Fold change vs veh, DNAJC13 / RFU, GNAQ / Fold change vs veh, GNAQ / RFU, CDK5R1 / Fold change vs veh, CDK5R1 / RFU, ZRANB3 / Fold change vs veh, ZRANB3 / RFU, CUL4A / Fold change vs veh, CUL4A / RFU, CCNY / Fold change vs veh, CCNY / RFU, UFL1 / Fold change vs veh, UFL1 / RFU, COG3 / Fold change vs veh, COG3 / RFU, DIAPH2 / Fold change vs veh, DIAPH2 / RFU, SKA2 / Fold change vs veh, SKA2 / RFU, AFF3 / Fold change vs veh, AFF3 / RFU, LMF1 / Fold change vs veh, LMF1 / RFU, IPO11 / Fold change vs veh, IPO11 / RFU, DFFB / Fold change vs veh, DFFB / RFU, FOXP1 / Fold change vs veh, FOXP1 / RFU, CARD8 / Fold change vs veh, CARD8 / RFU, STRN3 / Fold change vs veh, STRN3 / RFU, ADK / Fold change vs veh, ADK / RFU, RASSF2 / Fold change vs veh, RASSF2 / RFU, WIPF1 / Fold change vs veh, WIPF1 / RFU, LARP1B / Fold change vs veh, LARP1B / RFU, RASA1 / Fold change vs veh, RASA1 / RFU, RB1 / Fold change vs veh, RB1 / RFU, PPFIA1 / Fold change vs veh, PPFIA1 / RFU, MAT2A / Fold change vs veh, MAT2A / RFU, CCT5 / Fold change vs veh, CCT5 / RFU, WDR92 / Fold change vs veh, WDR92 / RFU, CUX1 / Fold change vs veh, CUX1 / RFU, TTC7A / Fold change vs veh, TTC7A / RFU, TMEM135 / Fold change vs veh, TMEM135 / RFU, DEPTOR / Fold change vs veh, DEPTOR / RFU, CPM / Fold change vs veh, CPM / RFU, DNAJB6 / Fold change vs veh, DNAJB6 / RFU, CACNA2D3 / Fold change vs veh, CACNA2D3 / RFU, DTX4 / Fold change vs veh, DTX4 / RFU, TFCP2 / Fold change vs veh, TFCP2 / RFU, GMCL1 /// GMCL1P1 / Fold change vs veh, GMCL1 /// GMCL1P1 / RFU, AEBP2 / Fold change vs veh, AEBP2 / RFU, SNHG1 /// SNORD22 /// SNORD25 /// SNORD26 /// SNORD27 /// SNORD28 /// SNORD29 /// SNORD31 / Fold change vs veh, SNHG1 /// SNORD22 /// SNORD25 /// SNORD26 /// SNORD27 /// SNORD28 /// SNORD29 /// SNORD31 / Fold change (Aza/veh), C12orf56 (ProbeSet 11735607_a_at) / Fold change (ACY-1035/veh), C12orf56 (ProbeSet 11735607_a_at) / Fold change (Aza/veh), FGFR1OP (ProbeSet 11751329_s_at) / Fold change (ACY-1035/veh), FGFR1OP (ProbeSet 11751329_s_at) / Fold change (Aza/veh), VPS36 (ProbeSet 11739960_a_at) / Fold change (ACY-1035/veh), VPS36 (ProbeSet 11739960_a_at) / RFU SYPL1 (11715823_x_at) / Fold change /veh SYPL1 (11715823_x_at) / RFU IGFBP7 (11715501_s_at) / Fold change /veh IGFBP7 (11715501_s_at) / RFU REEP3 (11722064_at) / Fold change /veh REEP3 (11722064_at) / RFU IGLL1 (11728026_x_at) / Fold change /veh IGLL1 (11728026_x_at): dose or concentration left out as unconfirmed
Details: MV-4-11 cells, 48 hours

For `Nc1ncn([C@@H]2O[C@H](CO)[C@@H](O)[C@H]2O)c(=O)n1` [azacitidine], the “RFU SOX15 (11748057_x_at)” value was 12.99 RFU.
